Source: patent publication US10912741B2, “Prevention of liver cancer with safranal-based formulations” (United Arab Emirates University, priority 2019, dated 2021)

Key:
[1] = system: catalase (CAT); experiment: Catalase activity in liver homogenate, DEN/2-AAF hepatocarcinogenesis model; type: in vivo, albino Wistar rats; details: mean±SEM, 8 rats
Procedure: The experimental hepatocarcinogenesis model was developed according to a protocol by […] et al. that was adapted for our purposes. To initiate and promote hepatocarcinogenesis, diethylnitrosamine (DEN) and 2-acetylaminofluorene (2-AAF) were used, respectively. For hepatocarcinogenesis initiation in this model, a single DEN dose (200 mg/kg b.wt.) dissolved in saline was injected intraperitoneally. After initiation, all rats underwent one period of 5-days fasting, as mitotic proliferative stimuli. To promote hepatocarcinogenesis, 2-acetylaminofluorene (2-AAF) was introduced in the form of six daily intragastric doses (30 mg/kg in 1% Tween 80); two weeks after DEN treatment. […] at doses of 25 mg/kg by weight (b.wt.) and 50 mg/kg b.wt, was administrated orally to rats. These doses have been reported to suppress chemically-induced oxidative damage in rats. A total of 40 adult male albino Wistar rats were randomly divided into […] (n=8) and were subjected to different treatments. Group 1 (control) was orally administered distilled water (5 ml/kg b.wt.) throughout the experimental duration and were injected with a single dose of saline. Group 2 ([…] only) was subjected to a safranal dose (50 mg/kg b.wt.) through oral administration for the duration of the experimental period. Hepatocarcinogenesis was induced by DEN and promoted by 2-AAF, as reported previously, in group 3 (HCC). […] Glutathione (GSH) content was determined by analyzing liver homogenates, according to the method of Van Dooran et al. The assay depends on measuring yellow 5-thiol-2-nitrobenzoate absorbance at 412 nm. Glutathione-S-transferase (GST) activity was determined using the method of Habig et al. GST catalyzes the conjugation of GSH thiol group with 1-Chloro-2,4-dinitrobenzene (CDNB), which can be measured by determining the increase in absorbance at 340 nm. […] CAT decomposes hydrogen peroxide (H2O2) to oxygen and water; therefore, the activity of CAT was evaluated according to by the exponential decomposition of H2O2 at 240 nm. […] UV-160-Shimadzu recording spectrophotometer was used to record absorbances. […]

[2] = system: HepG2 cells; experiment: Cell viability assay (CellTiter-Glo); type: cell-based, human; details: 0.01, 0.03, 0.1, 0.3, 1 mM, 24 hours
Procedure: (§1) HepG2, were cultured in RPMI 1640 medium (HyClone, USA) and 1% of 100 U/ml penicillin and 100 ug/ml streptomycin (Sigma, USA) supplemented with 10% fetal bovine serum (Sigma, USA) at 37° C. in a humidified 5% CO2 atmosphere. Cells were sub-cultured each 4-6 days using trypsin 0.25% (Hyclone, USA).
(§2) HepG2 cells were seeded in 96-well plates at the density of 10000 cells/well and grown in 100 uL of complete growth medium. Complete growth medium was replaced by serum-free medium after cells were allowed to attach for 24 hours; after which cells were incubated for at least 12 hours. Cells were incubated for 24 hours after treatment with various concentrations of safranal (1 mM, 0.3 mM, 0.1 mM, 0.03 mM, 0.01 mM) prepared from 10 mM stock solution. After incubation period, viability of HepG2 cells was assessed using CellTiter-Glo luminescent cell viability assay kit according to manufacturer's instruction (Promega, USA).

[3] = Cell viability assay (CellTiter-Glo); type: cell-based, human; details: human, HepG2 cells, 1 mM safranal, read-out: reduction of cell viability
Procedure: as §1, §2

[4] = system: caspase-3 and -7 in HepG2 cells; experiment: Caspase-3 and -7 assay (Caspase-Glo 3/7); type: cell-based, human; details: 1 mM, 48 hours
Procedure: as §1
HepG2 cells were seeded in 96-well plates at the density of 10000 cells/well and grown in 100 uL of complete growth medium. Complete growth medium was replaced by serum-free medium after cells were allowed to attach for 24 hours; after which cells were incubated for at least 12 hours. Cells were incubated for 48 hours after treatment with various concentrations of safranal (1 mM, 0.7 mM, 0.5 mM) prepared from 20 mM stock solution. After incubation period, caspase-3 and -7 activities were measured using Caspase-Glo 3/7 luminescent assay kit according to manufacturer's instruction (Promega, USA).

[5] = system: p-H2AX in HepG2 cells; experiment: Western blotting, p-H2AX; type: cell-based, human; details: 24 hours of safranal treatment (1 mM)
Procedure: as §1
In 100 mm plates, HepG2 cells were seeded at a density of 2×10^4 in complete growth medium. Cells were allowed to attach for 24 hours, after which complete growth medium was replaced by serum-free medium. Cells were treated with safranal at a concentration of 1 mM (20 mM stock). Plates were incubated for 6, 12, 24, and 48 hours in a humidified 5% CO2 atmosphere at 37° C. At indicated times, 1 mL of cell supernatant was obtained from each plate and was stored at −80° C. for further analysis by ELISA. After which whole cell lysates were prepared. Bicinchoninic acid (BCA) assay (Sigma-Aldrich, USA) was used to determine concentration of protein. Thirty μg of protein were loaded onto 10% SDS polyacrylamide electrophoresis gels. The gels were transferred onto nitrocellulose membranes prior to immunodetection processing with anti-p-IkB-alpha, anti-H2AX (Cell Signaling Technology, USA), and with anti-rabbit IgG peroxidase conjugated secondary antibodies. […]

CC1=C(C=O)C(C)(C)CC=C1 [Safranal, 2,6,6-trimethylcyclohexa-1,3-diene-1-carbaldehyde]
CAT ([1]; HCC (DEN/2-AAF) rats + safranal high dose 50 mg/kg b.wt. oral, 12 weeks): 145.4512 ± 4.57 unit/mg protein
CAT ([1]; HCC (DEN/2-AAF) rats + safranal low dose 25 mg/kg b.wt. oral, 12 weeks): 141.38 ± 0.91 unit/mg protein
CAT ([1]; safranal alone 50 mg/kg b.wt. oral, no DEN (group 2)): 143.75 ± 1.2 unit/mg protein
HepG2 cells viability [2]: significant dose-dependent reduction
cytotoxicity at 24 h, 1 mM [3]: ~70%
caspase-3 and -7 activities [4]: significant increase in caspase-3 and -7 activities
protein level of p-H2AX [5]: remarkable induction of p-H2AX
